Experimental data reported in patent publication US11939314B2, “Quinolin-2-one derivatives” (MERCK PATENT GMBH, priority 2016, dated 2024).
pIC50: −log10 of the molar value.

What was measured:
c-Kit(V654A) = biological target: T1, c-Kit(V654A) (Homo sapiens, UniProt P10721, V654A); assay: c-Kit(V654A) assay; format: biochemical; conditions: recombinant human c-Kit aa 544-end, 200 μM ATP, 1.4E-06 means 1.4×10^−6, read-out: Inhibition (IC50) of c-KIT (V654A)
T1 construct: amino acids 544-end containing the V654A mutation; GST (N)
Method in brief: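 Radiometric filter-binding read-out: substrate 33P incorporation counted by scintillation after P30 filtermat washes in 75 mM phosphoric acid and methanol. Enzyme: N-GST recombinant human c-Kit aa 544-end carrying V654A.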

PDGFRalpha(V561D) = biological target: T2, PDGFRalpha(V561D) (Homo sapiens, UniProt P16234, V561D); assay: PDGFRalpha(V561D) assay; format: biochemical; conditions: recombinant human PDGFRalpha aa 550-end, 200 μM ATP, 1.4E-06 means 1.4×10^−6, read-out: Inhibition (IC50) of PDGFRα (V561D)
T2 construct: recombinant human PDGFRalpha, amino acids 550end containing the V561 D mutation; 6His (N)
Method in brief: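 Radiometric filter-binding assay: substrate phosphorylation by recombinant N-His-tagged human PDGFRα 550-end V561D was quenched with 3% phosphoric acid after 40 min at room temperature, then counted.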

T1 sequence (P10721 544-976 V654A): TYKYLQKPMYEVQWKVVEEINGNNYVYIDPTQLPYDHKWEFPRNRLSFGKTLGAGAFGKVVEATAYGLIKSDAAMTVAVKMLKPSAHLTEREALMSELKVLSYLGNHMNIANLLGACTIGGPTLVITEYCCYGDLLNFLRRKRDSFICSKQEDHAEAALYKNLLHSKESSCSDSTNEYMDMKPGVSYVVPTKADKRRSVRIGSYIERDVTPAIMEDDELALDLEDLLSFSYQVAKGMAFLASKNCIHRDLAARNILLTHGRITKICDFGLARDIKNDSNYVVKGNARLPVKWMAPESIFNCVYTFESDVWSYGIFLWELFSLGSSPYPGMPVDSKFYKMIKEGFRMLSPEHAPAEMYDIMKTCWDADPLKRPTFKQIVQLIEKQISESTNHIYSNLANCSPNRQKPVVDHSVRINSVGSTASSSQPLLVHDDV
T2 sequence (P16234 550-1089 V561D): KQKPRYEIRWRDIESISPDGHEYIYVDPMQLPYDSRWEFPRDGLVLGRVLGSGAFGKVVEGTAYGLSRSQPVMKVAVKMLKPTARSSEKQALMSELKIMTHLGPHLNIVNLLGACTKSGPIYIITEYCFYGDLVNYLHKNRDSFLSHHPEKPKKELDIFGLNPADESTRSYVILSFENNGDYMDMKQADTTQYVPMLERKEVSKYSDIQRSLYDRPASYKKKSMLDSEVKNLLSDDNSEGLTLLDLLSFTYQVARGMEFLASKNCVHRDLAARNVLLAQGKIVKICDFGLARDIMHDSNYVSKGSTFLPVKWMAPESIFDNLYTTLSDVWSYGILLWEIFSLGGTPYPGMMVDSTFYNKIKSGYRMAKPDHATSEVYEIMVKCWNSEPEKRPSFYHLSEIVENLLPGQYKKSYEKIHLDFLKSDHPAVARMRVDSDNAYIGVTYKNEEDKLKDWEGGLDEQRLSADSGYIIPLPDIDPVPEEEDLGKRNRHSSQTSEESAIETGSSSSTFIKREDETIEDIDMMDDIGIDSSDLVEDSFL

Row | Compound | pIC50 (c-Kit(V654A)) | pIC50 (PDGFRalpha(V561D))
1 | COC[C@@H]1CCN(C(=O)c2ccc(-n3cc(-c4cc5cc(F)c(F)cc5[nH]c4=O)nn3)cc2)C1 [A200, 6,7-difluoro-3-{1-[4-((R)-3-methoxymethyl-pyrrolidine-1-carbonyl)-phenyl]-1H-[1,2,3]triazol-4-yl}-1H-quinolin-2-one] | 6.74 | 6.85
2 | COC[C@H]1CCN(C(=O)c2ccc(-n3cc(-c4cc5cc(F)c(F)cc5[nH]c4=O)nn3)cc2)C1 [A201, 6,7-difluoro-3-{1-[4-((S)-3-methoxymethyl-pyrrolidine-1-carbonyl)-phenyl]-1H-[1,2,3]triazol-4-yl}-1H-quinolin-2-one] | 7.01 | 7.04
3 | O=C(c1ccc(-n2cc(-c3cc4cc(F)ccc4[nH]c3=O)nn2)cc1)N1CCC2(CCOC2)C1 (stereo not drawn) [A204, 6-fluoro-3-{1-[4-(2-oxa-7-aza-spiro[4.4]nonane-7-carbonyl)-phenyl]-1H-[1,2,3]triazol-4-yl}-1H-quinolin-2-one] | 7.26 | 6.96
4 | O=C(c1ccc(-n2cc(-c3cc4cc(F)ccc4[nH]c3=O)nn2)cc1)N1CCC2(COC2)C1 [A205, 6-fluoro-3-{1-[4-(2-oxa-6-aza-spiro[3.4]octane-6-carbonyl)-phenyl]-1H-[1,2,3]triazol-4-yl}-1H-quinolin-2-one] | 7.44 | 7.03
5 | O=C(c1ccc(-n2cc(-c3cc4cc(F)ccc4[nH]c3=O)nn2)cc1)N1CCC(OCCN2CCOCC2)C1 (stereo not drawn) [A209, 6-fluoro-3-(1-{4-[3-(2-morpholin-4-yl-ethoxy)-pyrrolidine-1-carbonyl]-phenyl}-1H-[1,2,3]triazol-4-yl)-1H-quinolin-2-one] | 7.28 | 6.24

Now from value to molecule:

Row | pIC50 (c-Kit(V654A)) | pIC50 (PDGFRalpha(V561D)) | Compound
6 | 7.80 | 7.66 | COC[C@@H]1CCN(C(=O)c2ccc(-n3cc(-c4cc5cc(F)ccc5[nH]c4=O)nn3)cc2)C1 [A199, 6-fluoro-3-{1-[4-((R)-3-methoxymethyl-pyrrolidine-1-carbonyl)-phenyl]-1H-[1,2,3]triazol-4-yl}-1H-quinolin-2-one]
7 | 7.24 | 7.80 | COC[C@H]1CCN(C(=O)c2ccc(-n3cc(-c4cc5cc(F)ccc5[nH]c4=O)nn3)cc2)C1 [A202, 6-fluoro-3-{1-[4-((S)-3-methoxymethyl-pyrrolidine-1-carbonyl)-phenyl]-1H-[1,2,3]triazol-4-yl}-1H-quinolin-2-one]
8 | 7.44 | 6.31 | CCN(CC)CCOC1CCN(C(=O)c2ccc(-n3cc(-c4cc5cc(F)ccc5[nH]c4=O)nn3)cc2)C1 (stereo not drawn) [A203, 3-(1-{4-[3-(2-diethylamino-ethoxy)-pyrrolidine-1-carbonyl]-phenyl}-1H-[1,2,3]triazol-4-yl)-6-fluoro-1H-quinolin-2-one]
9 | 7.62 | 7.32 | O=C(c1ccc(-n2cc(-c3cc4cc(F)ccc4[nH]c3=O)nn2)cc1)N1CCC(CO)C1 (stereo not drawn) [A206, 6-fluoro-3-{1-[4-(3-hydroxymethyl-pyrrolidine-1-carbonyl)-phenyl]-1H-[1,2,3]triazol-4-yl}-1H-quinolin-2-one]
10 | 7.28 | 6.51 | CN(C)C1CCN(C(=O)c2ccc(-n3cc(-c4cc5cc(F)ccc5[nH]c4=O)nn3)cc2)C1 (stereo not drawn) [A207, 3-{1-[4-(3-dimethylamino-pyrrolidine-1-carbonyl)-phenyl]-1H-[1,2,3]triazol-4-yl}-6-fluoro-1H-quinolin-2-one]
11 | 7.74 | 6.74 | O=C(c1ccc(-n2cc(-c3cc4cc(F)ccc4[nH]c3=O)nn2)cc1)N1CCC(N2CCC(O)CC2)C1 (stereo not drawn) [A208, 6-fluoro-3-(1-{4-[3-(4-hydroxy-piperidin-1-yl)-pyrrolidine-1-carbonyl]-phenyl}-1H-[1,2,3]triazol-4-yl)-1H-quinolin-2-one]
12 | 7.34 | 6.52 | COCCOC[C@@H]1CCN(C(=O)c2ccc(-n3cc(-c4cc5cc(F)ccc5[nH]c4=O)nn3)cc2)C1 [A210, 6-fluoro-3-(1-{4-[(R)-3-(2-methoxy-ethoxymethyl)-pyrrolidine-1-carbonyl]-phenyl}-1H-[1,2,3]triazol-4-yl)-1H-quinolin-2-one]
